target: T1, Human MrgprX2 (Homo sapiens, UniProt Q96LB1); test: Human MrgprX2 antagonist FLIPR intracellular calcium mobilization assay; format: cell-based; details: antagonist activity, recombinant hMrgpMRGPRX2 expressing cells, read-out: Human MrgprX2 Antagonist pIC50 (converted)
T1 construct: expressed in transfected cells
T1 sequence (Q96LB1 1-330): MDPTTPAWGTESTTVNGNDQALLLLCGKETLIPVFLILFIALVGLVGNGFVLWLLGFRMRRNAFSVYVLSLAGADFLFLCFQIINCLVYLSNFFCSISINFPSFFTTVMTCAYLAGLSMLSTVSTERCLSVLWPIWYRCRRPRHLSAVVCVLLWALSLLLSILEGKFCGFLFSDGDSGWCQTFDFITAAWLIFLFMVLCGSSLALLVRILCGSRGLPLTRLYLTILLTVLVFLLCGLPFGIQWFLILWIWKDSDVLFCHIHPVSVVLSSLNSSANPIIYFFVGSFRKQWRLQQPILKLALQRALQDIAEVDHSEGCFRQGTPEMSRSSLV
From the text: Potent and selective hMrgpMRGPRX2 compounds have been generated from compounds identified during a high throughput screening (HTS) campaign and followed up with cycles of structure activity based medicinal chemistry efforts. These compounds were characterized in recombinant hMrgpMRGPRX2 expressing cells for their antagonist activity and the potency was confirmed in the human mast cell line LAD-2, where the target is endogenously expressed. The assays used to determine potencies are functional read-out looking at intracellular calcium mobilization using the FLIPR™ technology. In these FLIPR assays, we test the identified compounds using recombinant cellular systems expressing mouse MrgprB2, mouse MrgprA1, gerbil MrgpMRGPRX2 orthologue, Chinese hamster MrgpMRGPRX2 orthologue and cynomolgus monkey MrgpMRGPRX2 orthologue, respectively for orthologue activity.

IC50 [µM]	Structure (SMILES)
0.794	O=C(Nc1ncc(Cc2cccc(F)c2)s1)N1CC[C@H](CO)C1 [Compound E112]
0.794	O=C(Nc1ncc(Cc2cccc(F)c2)s1)N1CC[C@@H](CO)C1 [Compound E113]
0.0316	C[C@H](O)CN(C)C(=O)Nc1ncc(Cc2cccc(Cl)c2)s1 [Compound E116]
0.2	CC(O)CN(CC(F)(F)F)C(=O)Nc1ncc(Cc2cccc(F)c2)s1 (stereo not drawn) [Compound E119]
7.94	O=C(Nc1ncc(Cc2cccc(F)c2)s1)N1CCOC[C@H]1CO [Compound E123]
0.00794	CC(C)CN(C)C(=O)Nc1ncc(Cc2cccc(F)c2)s1 [Compound E125]
0.631	O=C(Nc1ncc(Cc2cccc(F)c2)s1)N1CCC1CO (stereo not drawn) [Compound E126]
0.0316	CC(CO)N(C)C(=O)Nc1ncc(Cc2cccc(F)c2)s1 (stereo not drawn) [Compound E128]
0.2	C[C@H](O)CN(C)C(=O)Nc1ncc(Cc2ccc(F)cc2)s1 [Compound E130]
6.31	NC(=O)[C@@H]1CCCN1C(=O)Nc1ncc(Cc2cccc(F)c2)s1 [Compound E131]
2.51	CN(CCO)C(=O)Nc1ncc(Cc2cccc(F)c2)s1 [Compound E132]
0.00631	C[C@@H](O)CN(C)C(=O)Nc1ncc(Cc2cc(F)cc(F)c2)s1 [Compound E133]
0.00158	C[C@H](O)CN(C)C(=O)Nc1ncc(Cc2cc(F)cc(F)c2)s1 [Compound E134]
0.0158	C[C@H](O)CN(C)C(=O)Nc1ncc(Cc2ccc(F)c(F)c2)s1 [Compound E135]
2	C[C@H](O)CN(C)C(=O)Nc1ncc(CC2CCCC2)s1 [Compound E138]
0.0398	CCN(C[C@H](C)O)C(=O)Nc1ncc(Cc2cc(F)ccc2OC)s1 [Compound E139]
1.58	C[C@H](O)CN(C)C(=O)Nc1ncc(Cc2c(F)cccc2F)s1 [Compound E142]
0.398	COc1ccc(F)cc1Cc1cnc(NC(=O)N(C)C[C@H](C)O)s1 [Compound E143]
3.16	C[C@H](O)CN(C)C(=O)Nc1ncc(Cc2ccc(C#N)cc2)s1 [Compound E145]
0.0398	CCN(C[C@H](C)O)C(=O)Nc1ncc(Cc2cc(F)cc(C#N)c2)s1 [Compound E146]

More lines, now with the values behind:

Structure (SMILES)	IC50 [µM]
CC(O)CN(C(=O)Nc1ncc(Cc2cccc(F)c2)s1)C1CC1 (stereo not drawn) [Compound E114]	0.794
CCN(CCO)C(=O)Nc1ncc(Cc2cccc(F)c2)s1 [Compound E115]	0.251
CCN(C[C@H](C)O)C(=O)Nc1ncc(Cc2cccc(F)c2)s1 [Compound E117]	0.000631
CCN(C[C@@H](C)O)C(=O)Nc1ncc(Cc2cccc(F)c2)s1 [Compound E118]	0.0251
O=C(Nc1ncc(Cc2cccc(F)c2)s1)N1CCC[C@H]1CO [Compound E120]	0.398
O=C(Nc1ncc(Cc2cccc(F)c2)s1)N1CCC[C@@H]1CO [Compound E121]	0.0398
CN(CC1(O)CC1)C(=O)Nc1ncc(Cc2cccc(F)c2)s1 [Compound E122]	0.00631
O=C(Nc1ncc(Cc2cccc(F)c2)s1)N1CCOC[C@@H]1CO [Compound E124]	0.794
O=C(Nc1ncc(Cc2cccc(F)c2)s1)N1CC(F)(F)C[C@@H]1CO [Compound E127]	0.0398
CCN(C[C@H](C)O)C(=O)Nc1nc2ccccc2s1 [Compound E129]	1
C[C@H](O)CN(C)C(=O)Nc1ncc(Cc2cc(F)ccc2F)s1 [Compound E136]	0.00398
C[C@H](O)CN(C)C(=O)Nc1ncc(Cc2cccc(F)c2F)s1 [Compound E137]	0.01
CCN(C[C@H](C)O)C(=O)Nc1ncc(Cc2cccc(F)c2OC)s1 [Compound E140]	0.501
C[C@H](O)CN(C)C(=O)Nc1ncc(Cc2ccc(F)cc2F)s1 [Compound E141]	0.0501
C[C@H](O)CN(C)C(=O)Nc1ncc(Cc2cccc(C#N)c2)s1 [Compound E144]	1.58
CCN(C[C@H](C)O)C(=O)Nc1ncc(Oc2ccc(C#N)cc2)s1 [Compound E147, 3-[5-(4-cyanophenoxy)thiazol-2-yl]-1-ethyl-1-[(2S)-2-hydroxypropyl]urea]	0.00316
